Laboratory results taken from US20080234262A1 (Wyeth, priority 2007, published 2008).
pIC50: −log10 of the molar value. Read-outs that look alike come from different tables or passages of the source.

Tests used:
breast line MDA468 = experiment: In vitro cell culture growth assay (MTS), MDA468; type: cell-based, human; conditions: MDA468 cells, three days after drug treatment
Method in brief: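 Growth measured as percent of same-plate vehicle control by MTS metabolic dye conversion (A490). Breast MDA468 and prostate LNCap cells, plated a day ahead, were exposed to compounds for 3 days.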

prostate line LNCap = experiment: In vitro cell culture growth assay (MTS), LNCap; type: cell-based, human; conditions: LNCap cells, three days after drug treatment;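 also: viable cell density read by absorbance at 490 nm, growth expressed as percent of vehicle-treated cells on the same plate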
PI3K = PI3K (Homo sapiens, UniProt P42336); experiment: Fluorescence polarization assay for PI3K; type: biochemical;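 also: PI3K kinase reaction on PIP2 with ATP, 30-60 min, product sensed by GST-GRP with red probe in fluorescence polarization (mP), controls without enzyme and at zero time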
PI3K, sequence (P42336 whole entry): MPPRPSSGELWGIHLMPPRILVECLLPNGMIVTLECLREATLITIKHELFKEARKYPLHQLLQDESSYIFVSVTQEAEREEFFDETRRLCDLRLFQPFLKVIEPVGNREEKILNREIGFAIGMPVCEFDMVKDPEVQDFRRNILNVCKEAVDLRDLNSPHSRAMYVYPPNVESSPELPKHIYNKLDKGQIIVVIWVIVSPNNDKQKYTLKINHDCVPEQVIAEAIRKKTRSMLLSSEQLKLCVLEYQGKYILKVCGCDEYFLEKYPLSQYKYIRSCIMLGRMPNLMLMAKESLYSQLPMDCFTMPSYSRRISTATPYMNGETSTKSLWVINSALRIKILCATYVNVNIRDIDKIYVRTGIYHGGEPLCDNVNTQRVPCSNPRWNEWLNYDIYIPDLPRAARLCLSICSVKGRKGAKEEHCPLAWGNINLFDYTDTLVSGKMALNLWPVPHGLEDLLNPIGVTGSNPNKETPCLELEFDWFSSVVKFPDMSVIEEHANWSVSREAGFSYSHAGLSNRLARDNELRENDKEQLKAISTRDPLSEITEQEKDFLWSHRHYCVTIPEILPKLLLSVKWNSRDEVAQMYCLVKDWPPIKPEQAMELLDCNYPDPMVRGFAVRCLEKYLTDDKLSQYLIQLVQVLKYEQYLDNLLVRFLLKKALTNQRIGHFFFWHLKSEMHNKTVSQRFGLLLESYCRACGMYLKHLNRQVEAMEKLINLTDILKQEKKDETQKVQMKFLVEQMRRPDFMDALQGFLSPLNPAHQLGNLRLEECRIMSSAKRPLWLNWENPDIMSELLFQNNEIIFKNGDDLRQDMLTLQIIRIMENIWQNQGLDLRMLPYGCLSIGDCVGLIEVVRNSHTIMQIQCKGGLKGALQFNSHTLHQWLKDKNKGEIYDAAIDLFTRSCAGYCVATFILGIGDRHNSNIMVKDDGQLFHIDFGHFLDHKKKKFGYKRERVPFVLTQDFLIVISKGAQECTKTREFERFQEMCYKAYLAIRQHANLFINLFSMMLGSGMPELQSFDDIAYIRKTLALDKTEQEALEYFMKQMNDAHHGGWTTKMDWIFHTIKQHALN
PI3K, sequence (P27986 whole entry partner): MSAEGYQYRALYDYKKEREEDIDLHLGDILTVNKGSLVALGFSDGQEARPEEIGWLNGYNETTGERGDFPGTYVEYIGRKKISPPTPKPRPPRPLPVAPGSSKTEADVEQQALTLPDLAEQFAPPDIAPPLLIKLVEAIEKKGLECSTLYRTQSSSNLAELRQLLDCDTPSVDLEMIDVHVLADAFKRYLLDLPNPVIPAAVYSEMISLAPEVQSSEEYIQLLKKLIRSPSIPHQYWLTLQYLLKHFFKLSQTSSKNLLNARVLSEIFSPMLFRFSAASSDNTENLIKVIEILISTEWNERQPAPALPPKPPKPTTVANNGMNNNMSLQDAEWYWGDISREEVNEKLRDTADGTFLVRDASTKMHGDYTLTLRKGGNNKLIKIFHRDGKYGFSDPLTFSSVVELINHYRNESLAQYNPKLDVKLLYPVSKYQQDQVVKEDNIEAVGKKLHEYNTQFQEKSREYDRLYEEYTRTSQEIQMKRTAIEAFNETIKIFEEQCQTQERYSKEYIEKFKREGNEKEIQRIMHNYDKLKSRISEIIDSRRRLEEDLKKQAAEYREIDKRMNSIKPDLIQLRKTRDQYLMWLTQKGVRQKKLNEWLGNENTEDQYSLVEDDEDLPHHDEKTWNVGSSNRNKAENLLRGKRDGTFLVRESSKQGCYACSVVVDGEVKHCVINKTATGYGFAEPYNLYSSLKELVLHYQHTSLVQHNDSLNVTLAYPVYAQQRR

pIC50 (prostate line LNCap; Homo sapiens, LNCaP, 72 h)	pIC50 (PI3K; PI3Kα, read-out: PI3Kα IC50)	pIC50 (prostate line LNCap)	SMILES	pIC50 (breast line MDA468; Homo sapiens, 72 h)	pIC50 (breast line MDA468)	pIC50 (prostate line LNCap; Homo sapiens, 72 h)	pIC50 (PI3K; PI3Kα IC50, PI3Kα)
5.92	7.54	–	CNCCNC(=O)Nc1ccc(-c2nc(N3CCOCC3)c3cnn(C4CCN(Cc5cccnc5)CC4)c3n2)cc1 [Compound 589, 1-[2-(methylamino)ethyl]-3-(4-{4-morpholin-4-yl-1-[1-(pyridin-3-ylmethyl)piperidin-4-yl]-1H-pyrazolo[3,4-d]pyrimidin-6-yl}phenyl)urea]	5.96	–	–	–
–	6.34	> 7.57	O=C(NCCF)Nc1ccc(-c2nc(N3CCOCC3)c3cnn(C4CCN(C(=O)c5ccccc5)CC4)c3n2)cc1 [Compound 625, 1-{4-[1-(1-benzoylpiperidin-4-yl)-4-morpholin-4-yl-1H-pyrazolo[3,4-d]pyrimidin-6-yl]phenyl}-3-(2-fluoroethyl)urea]	7.57	–	–	–
5.33	6.55	–	COc1cncc(-c2nc(N3CCOCC3)c3cnn(C)c3n2)c1 [Compound 11]	5.30	–	–	–
6.15	6.13	–	CN1CCN(C(=O)N2CCC(n3ncc4c(N5CCOCC5)nc(-c5ccc6[nH]ccc6c5)nc43)CC2)CC1 [Compound 120]	5.70	–	–	–
4.96	5.19	–	CN(C)c1ccc(CC(=O)Nc2ccc(-c3nc(N4CCOCC4)c4cnn(C5CCCCO5)c4n3)cc2)cc1 (stereo not drawn) [Compound 276, 2-[4-(dimethylamino)phenyl]-N-{4-[4-morpholin-4-yl-1-(tetrahydro-2H-pyran-2-yl)-1H-pyrazolo[3,4-d]pyrimidin-6-yl]phenyl}acetamide]	4.22	–	–	–
6.19	6.80	–	CN(C)CCCNC(=O)Nc1ccc(-c2nc(N3CCOCC3)c3cnn(C4CCN(Cc5ccccc5)CC4)c3n2)cc1 [Compound 516, 1-{4-[1-(1-benzylpiperidin-4-yl)-4-morpholin-4-yl-1H-pyrazolo[3,4-d]pyrimidin-6-yl]phenyl}-3-[3-(dimethylamino)propyl]urea]	5.70	–	–	–
6.66	6.07	–	Cc1ccc(C(=O)N2CCC(n3ncc4c(N5CCOCC5)nc(-c5ccc6[nH]ccc6c5)nc43)CC2)cc1 [Example 53]	5.41	–	–	–
6.35	5.77	–	O=C(c1cccnc1Cl)N1CCC(n2ncc3c(N4CCOCC4)nc(-c4ccc5[nH]ccc5c4)nc32)CC1 [Example 195, 1-{1-[(2-chloropyridin-3-yl)carbonyl]piperidin-4-yl}-6-(1H-indol-5-yl)-4-morpholin-4-yl-1H-pyrazolo[3,4-d]pyrimidine]	6.00	–	–	–
6.46	6.05	–	COC(=O)Nc1ccc(-c2nc(N3CCOCC3)c3cnn(C4CCN(C(=O)c5ccccc5OC)CC4)c3n2)cc1 [Example 446, methyl (4-{1-[1-(2-methoxybenzoyl)piperidin-4-yl]-4-morpholin-4-yl-1H-pyrazolo[3,4-d]pyrimidin-6-yl}phenyl)carbamate]	6.05	–	–	–
5.77	6.11	–	CNC(=NC#N)Nc1ccc(-c2nc(N3CCOCC3)c3cnn(C4CCN(Cc5cccnc5)CC4)c3n2)cc1 [Example 407, 2-cyano-1-methyl-3-(4-{4-morpholin-4-yl-1-[1-(pyridin-3-ylmethyl)piperidin-4-yl]-1H-pyrazolo[3,4-d]pyrimidin-6-yl}phenyl)guanidine]	5.42	–	–	–
6.22	5.95	–	OC1CCC(n2ncc3c(N4CCOCC4)nc(-c4ccc5[nH]ccc5c4)nc32)CC1 (stereo not drawn) [Compound 152, 4-[6-(1H-indol-5-yl)-4-morpholin-4-yl-1H-pyrazolo[3,4-d]pyrimidin-1-yl]cyclohexanol]	5.64	–	–	–
–	7.33	> 7.57	CNC(=O)Nc1ccc(-c2nc(N3CCOCC3)c3cnn(C4CCN(Cc5ccc(Cl)nc5)CC4)c3n2)cc1 [Compound 633, 1-[4-(1-{1-[(6-chloropyridin-3-yl)methyl]piperidin-4-yl}-4-morpholin-4-yl-1H-pyrazolo[3,4-d]pyrimidin-6-yl)phenyl]-3-methylurea]	–	7.32	–	–
–	–	–	COC(=O)N1CCC(n2ncc3c(N4CCOCC4)nc(-c4ccc(NC(=O)Oc5ccccc5)cc4)nc32)CC1 [Compound 945, methyl 4-(4-morpholin-4-yl-6-{4-[(phenoxycarbonyl)amino]phenyl}-1H-pyrazolo[3,4-d]pyrimidin-1-yl)piperidine-1-carboxylate]	4.70	–	5.30	< 5.00
–	7.30	7.40	CNC(=O)Nc1ccc(-c2nc(N3CCOCC3)c3cnn(C4CCN(Cc5ccccc5C)CC4)c3n2)cc1 [Compound 673, 1-methyl-3-(4-{1-[1-(2-methylbenzyl)piperidin-4-yl]-4-morpholin-4-yl-1H-pyrazolo[3,4-d]pyrimidin-6-yl}phenyl)urea]	–	6.74	–	–
5.47	6.22	–	C=CC(=O)Nc1ccc(-c2nc(N3CCOCC3)c3cn[nH]c3n2)cc1 [Compound 280, N-[4-(4-morpholin-4-yl-1H-pyrazolo[3,4-d]pyrimidin-6-yl)phenyl]acrylamide]	5.15	–	–	–
6.40	6.35	–	CCCCNC(=O)Nc1ccc(-c2nc(N3CCOCC3)c3cnn(C4CCN(C(=O)c5cccnc5)CC4)c3n2)cc1 [Example 216, 1-butyl-3-(4-{4-morpholin-4-yl-1-[1-(pyridin-3-ylcarbonyl)piperidin-4-yl]-1H-pyrazolo[3,4-d]pyrimidin-6-yl}phenyl)urea]	5.82	–	–	–
4.22	6.12	–	C1=C(c2nc(N3CCOCC3)c3cnn(-c4ccccc4)c3n2)CCOC1 [Compound 98]	4.48	–	–	–
6.99	7.35	–	CNC(=O)Nc1ccc(-c2nc(N3CCOCC3)c3cnn(C4CCOCC4)c3n2)cc1 [Example 403, 1-methyl-3-{4-[4-morpholin-4-yl-1-(tetrahydro-2H-pyran-4-yl)-1H-pyrazolo[3,4-d]pyrimidin-6-yl]phenyl}urea]	6.40	–	–	–
5.82	5.61	–	COc1cc(-c2nc(N3CCOCC3)c3cnn(C4CCN(Cc5ccccc5)CC4)c3n2)ccc1N [Compound 181]	5.26	–	–	–
8.30	6.29	–	CCOC(=O)N1CCC(n2ncc3c(N4CCOC[C@H]4C)nc(-c4ccc(NC(=O)Nc5ccncc5)cc4)nc32)CC1 [Compound 893, ethyl 4-(4-[(3R)-3-methylmorpholin-4-yl]-6-{4-[(pyridin-4-ylcarbamoyl)amino]phenyl}-1H-pyrazolo[3,4-d]pyrimidin-1-yl)piperidine-1-carboxylate]	6.74	–	–	–
> 7.57	8.00	–	O=C(Nc1ccc(-c2nc(N3CCOCC3)c3cnn(CC(F)(F)F)c3n2)cc1)Nc1cccnc1 [Compound 792, 1-{4-[4-morpholin-4-yl-1-(2,2,2-trifluoroethyl)-1H-pyrazolo[3,4-d]pyrimidin-6-yl]phenyl}-3-pyridin-3-ylurea]	> 7.57	–	–	–
6.23	6.11	–	COc1cccc(C(=O)N2CCC(n3ncc4c(N5CCOCC5)nc(-c5ccc6[nH]ccc6c5)nc43)CC2)c1 [Example 48]	5.64	–	–	–
6.19	6.80	–	CN(C)CCCNC(=O)Nc1ccc(-c2nc(N3CCOCC3)c3cnn(C4CCN(Cc5ccccc5)CC4)c3n2)cc1 [Compound 271, 1-{4-[1-(1-benzylpiperidin-4-yl)-4-morpholin-4-yl-1H-pyrazolo[3,4-d]pyrimidin-6-yl]phenyl}-3-[3-(dimethylamino)propyl]urea]	5.70	–	–	–
5.15	5.64	–	CN(C)CC(=O)Nc1ccc(-c2nc(N3CCOCC3)c3cn[nH]c3n2)cc1 [Compound 527, N^2,N^2-dimethyl-N-[4-(4-morpholin-4-yl-1H-pyrazolo[3,4-d]pyrimidin-6-yl)phenyl]glycinamide]	4.74	–	–	–
–	8.10	> 7.57	O=C(Nc1ccc(-c2nc(N3CCOCC3)c3cnn(C4CCN(Cc5cccnc5)CC4)c3n2)cc1)Nc1cccs1 [Compound 648, 1-(4-{4-morpholin-4-yl-1-[1-(pyridin-3-ylmethyl)piperidin-4-yl]-1H-pyrazolo[3,4-d]pyrimidin-6-yl}phenyl)-3-(2-thienyl)urea]	–	7.22	–	–
7.40	7.27	–	CNC(=O)Nc1ccc(-c2nc(N3CCOCC3)c3cnn(C4CCN(C(=O)OCCF)CC4)c3n2)cc1 [Compound 878, 2-fluoroethyl 4-(6-{4-[(methylcarbamoyl)amino]phenyl}-4-morpholin-4-yl-1H-pyrazolo[3,4-d]pyrimidin-1-yl)piperidine-1-carboxylate]	6.92	–	–	–
5.70	6.34	–	COc1ccc(NC2CCC(n3ncc4c(N5CCOCC5)nc(-c5ccc6[nH]ccc6c5)nc43)CC2)cc1 (stereo not drawn) [Compound 153]	5.19	–	–	–
4.35	6.61	–	O=C(O)CCC(=O)Nc1ccc(-c2nc(N3CCOCC3)c3cnn(-c4ccccc4)c3n2)cc1 [Compound 109]	4.52	–	–	–
5.52	6.05	–	C=CCONC(=O)Nc1ccc(-c2nc(N3CCOCC3)c3cnn(-c4ccccc4)c3n2)cc1 [Compound 542, 1-(allyloxy)-3-[4-(4-morpholin-4-yl-1-phenyl-1H-pyrazolo[3,4-d]pyrimidin-6-yl)phenyl]urea]	4.22	–	–	–
5.60	5.14	–	OCCCN1CCC(n2ncc3c(N4CCOCC4)nc(-c4ccc5[nH]ccc5c4)nc32)CC1 [Compound 247, 3-{4-[6-(1H-indol-5-yl)-4-morpholin-4-yl-1H-pyrazolo[3,4-d]pyrimidin-1-yl]piperidin-1-yl}propan-1-ol]	5.52	–	–	–
